# According to patent US20220290140A1, “TRANS-CYCLOOCTENE LABELED ANTISENSE OLIGONUCLEOTIDES, RADIO LABELED TETRAZINE AND METHODS” (Biogen MA Inc., priority 2019, published 2022):
# Assays:
# Type in all cases: in vitro ADME
# [1] = Plasma protein binding (PPB); details: rat, read-out: plasma protein binding, unbound
# From the text: (§1) As pretargeting is a 2-component system, an ^18F-Tz was developed to be CNS-penetrant based on cnsPET-MPO modeling (Zhang, L., et al. (2018). J Med Chem 61(8): 3296-3308).
# [2] = Brain protein binding (BPB); details: rat, brain tissue (brain protein binding)
# From the text: as §1
# BCRP = molecular target: T1, BCRP (Homo sapiens, UniProt Q9UNQ0); assay: in vitro; details: dog
# T1 construct: expressed in transfected cells; host or cells: MDCK (canine kidney) cells expressing BCRP
# T1 sequence (Q9UNQ0 1-655): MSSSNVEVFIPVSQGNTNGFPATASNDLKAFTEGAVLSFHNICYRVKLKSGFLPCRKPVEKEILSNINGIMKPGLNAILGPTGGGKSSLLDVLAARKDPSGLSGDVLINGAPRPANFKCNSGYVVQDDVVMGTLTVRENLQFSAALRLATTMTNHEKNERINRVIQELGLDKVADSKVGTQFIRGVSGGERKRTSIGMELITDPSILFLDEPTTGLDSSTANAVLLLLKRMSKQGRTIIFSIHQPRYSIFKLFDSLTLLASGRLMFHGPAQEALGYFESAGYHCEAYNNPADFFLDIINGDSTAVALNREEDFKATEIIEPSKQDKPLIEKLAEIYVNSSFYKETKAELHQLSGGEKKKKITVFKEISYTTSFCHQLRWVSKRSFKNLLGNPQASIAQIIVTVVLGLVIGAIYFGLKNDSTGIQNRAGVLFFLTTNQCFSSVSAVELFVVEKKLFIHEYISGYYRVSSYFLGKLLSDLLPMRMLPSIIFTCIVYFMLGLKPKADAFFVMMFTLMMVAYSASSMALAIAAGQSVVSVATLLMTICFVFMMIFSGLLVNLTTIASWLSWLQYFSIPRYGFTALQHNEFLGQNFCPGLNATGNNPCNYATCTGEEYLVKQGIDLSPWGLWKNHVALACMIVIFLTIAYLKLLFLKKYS
# From the text: as §1
# P-gp = molecular target: T2, P-gp (Homo sapiens, UniProt P08183); assay: MDCK-P-gp cell model of permeability (efflux ratio); details: dog, MDCK-MDR1
# T2 construct: expressed in transfected cells; host or cells: MDCK (canine kidney) cells expressing P-gp
# From the text: as §1
# T2 sequence (P08183 whole entry): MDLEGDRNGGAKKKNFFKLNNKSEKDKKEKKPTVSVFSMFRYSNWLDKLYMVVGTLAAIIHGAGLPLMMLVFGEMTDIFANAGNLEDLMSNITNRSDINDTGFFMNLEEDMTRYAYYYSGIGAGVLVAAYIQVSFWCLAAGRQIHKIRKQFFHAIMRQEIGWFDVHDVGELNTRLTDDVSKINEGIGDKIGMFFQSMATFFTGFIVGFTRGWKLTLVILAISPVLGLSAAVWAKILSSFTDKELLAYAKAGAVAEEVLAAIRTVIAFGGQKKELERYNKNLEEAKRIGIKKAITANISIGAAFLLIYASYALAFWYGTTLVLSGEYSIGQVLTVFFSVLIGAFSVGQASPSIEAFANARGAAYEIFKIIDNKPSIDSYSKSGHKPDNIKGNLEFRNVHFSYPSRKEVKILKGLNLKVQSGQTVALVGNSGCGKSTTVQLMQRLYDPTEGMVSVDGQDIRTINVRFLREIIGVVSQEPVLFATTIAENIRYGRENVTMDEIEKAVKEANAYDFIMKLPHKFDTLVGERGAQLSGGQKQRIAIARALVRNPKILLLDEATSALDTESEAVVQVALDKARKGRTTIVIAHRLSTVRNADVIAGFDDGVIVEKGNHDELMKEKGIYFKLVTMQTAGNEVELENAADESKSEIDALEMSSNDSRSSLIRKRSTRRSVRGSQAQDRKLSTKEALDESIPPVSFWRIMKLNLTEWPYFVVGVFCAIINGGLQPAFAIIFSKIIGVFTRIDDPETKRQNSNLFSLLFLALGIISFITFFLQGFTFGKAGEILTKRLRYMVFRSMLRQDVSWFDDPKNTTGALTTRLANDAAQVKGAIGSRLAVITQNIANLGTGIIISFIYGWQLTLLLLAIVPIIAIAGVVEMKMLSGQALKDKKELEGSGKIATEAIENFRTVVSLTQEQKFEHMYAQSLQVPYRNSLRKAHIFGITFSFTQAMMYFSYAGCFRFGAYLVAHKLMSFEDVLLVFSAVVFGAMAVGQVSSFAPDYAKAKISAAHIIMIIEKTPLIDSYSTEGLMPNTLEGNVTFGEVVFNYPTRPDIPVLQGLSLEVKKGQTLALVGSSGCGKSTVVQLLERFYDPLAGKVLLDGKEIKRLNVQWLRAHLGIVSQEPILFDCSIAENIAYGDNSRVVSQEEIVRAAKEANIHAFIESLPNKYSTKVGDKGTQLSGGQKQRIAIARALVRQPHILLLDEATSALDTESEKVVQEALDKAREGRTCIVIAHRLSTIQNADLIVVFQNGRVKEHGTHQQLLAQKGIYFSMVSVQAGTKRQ
structure (smiles),measurement,setting,value
"O=C(Cc1ccc(-c2nncnn2)cc1)NCCF [Compound 1′, 2-(4-(1,2,4,5-tetrazin-3-yl)phenyl)-N-(2-fluoroethyl)acetamide]",fraction unbound,[1],0.69
same,fraction unbound,[2],0.51
same,efflux ratio,BCRP,0.51
same,efflux ratio,P-gp,1.71
